PubChem BioAssay (NCI)
Values joined by “and” are separate entries in the source; they are usually repeats but may differ in a detail not shown here. Equal entries are not always repeated.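 Each compound was tested at five concentrations against cells in 96-well plates for 48 hours. Abbreviation: GI50, concentration required for 50% inhibition of growth. TGI: concentration producing complete growth inhibition.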

How the values were obtained:
Assay in all cases: NCI-60 cell line screen, 48 h
ACHN renal = system: ACHN renal
CAKI-1 renal = system: CAKI-1 renal
HCC-2998 colon = system: HCC-2998 colon
HOP-62 NSCLC = system: HOP-62 NSCLC
M14 melanoma = system: M14 melanoma
OVCAR-3 ovarian = system: OVCAR-3 ovarian
SK-MEL-5 melanoma = system: SK-MEL-5 melanoma
SW-620 colon = system: SW-620 colon
SF-295 CNS = system: SF-295 CNS
HS 578T breast = system: HS 578T breast

Row | SMILES | TGI (ACHN renal) | TGI (CAKI-1 renal) | TGI (HCC-2998 colon) | TGI (HOP-62 NSCLC) | TGI (M14 melanoma) | TGI (OVCAR-3 ovarian) | TGI (SK-MEL-5 melanoma) | TGI (SW-620 colon) | GI50 (ACHN renal) | GI50 (CAKI-1 renal) | GI50 (HCC-2998 colon) | GI50 (HOP-62 NSCLC) | GI50 (M14 melanoma) | GI50 (OVCAR-3 ovarian) | GI50 (SF-295 CNS) | TGI (SF-295 CNS) | GI50 (SK-MEL-5 melanoma) | GI50 (SW-620 colon) | GI50 (HS 578T breast) | TGI (HS 578T breast)
1 | O=C(N/C(=C\c1c(O)ccc2ccccc12)c1nc2ccccc2[nH]1)c1ccccc1 | > 100 µM | > 100 µM | > 100 µM | 76.1 µM | > 100 µM | > 100 µM | > 100 µM | > 100 µM | – | – | – | – | – | – | – | – | – | – | – | –
2 | O=c1cc(-c2ccccc2)oc2ccc(OC/C(=N/O)c3ccc(F)cc3)cc12 | > 50 µM | 16.2 µM | 12.5 µM | > 50 µM | > 50 µM | 7.2 µM | 6.23 µM | 32.8 µM | 10.3 µM | 3.57 µM | 4.41 µM | 8.79 µM | 4.48 µM | 1.67 µM | 1.79 µM | 8.12 µM | 1.61 µM | 2.67 µM | – | –
3 | CCCCCCCCCCCC[N+](C)(C)Cc1ccccc1 | 20.4 µM | 24.8 µM | – | 7.27 µM | 4.32 µM | 4.02 µM | 2.62 µM | 12.1 µM | 5.61 µM | 5.84 µM | – | 2.69 µM | 1.92 µM | 1.71 µM | 2.82 µM | 12.2 µM | 1.33 µM | 2.69 µM | 1.95 µM | 5.96 µM
4 | O=C(Nc1cc(Cl)ccc1Cl)c1cc2cccc(Br)c2oc1=O | > 100 µM | – | – | > 100 µM | > 100 µM | > 100 µM | > 100 µM | > 100 µM | – | – | – | – | – | – | – | > 100 µM | – | – | – | –
5 | C=C1C(=O)O[C@H]2[C@H]1CC/C(COC(=O)c1cn(C)c3ccccc13)=C\CC[C@@]1(C)O[C@@H]21 | 2.09 µM | – | 3.8 µM | 3.76 µM | 3.3 µM | 1.48 µM | 2.77 µM | 1.1 µM | 0.828 µM | – | 1.81 µM | 1.81 µM | 1.41 µM | 0.384 µM | 2.41 µM | 6.98 µM | 1.42 µM | 0.301 µM | 2.39 µM | 9.47 µM
6 | O=c1nc(NC(c2ccccc2)(c2ccccc2)c2ccccc2)ccn1CCCl | 99 µM | – | 28 µM | 40.9 µM | – | 27.6 µM | – | 48.6 µM | – | – | – | – | – | – | – | 42.9 µM | – | – | – | –
7 | CSC(=Nc1ccccc1Cl)NC(=O)c1ccc(Br)cc1 | > 100 µM | 97.4 µM | > 100 µM | 55.3 µM | > 100 µM | > 100 µM | – | > 100 µM | – | – | – | – | – | – | – | > 100 µM | – | – | – | –
8 | COc1cc(O)c(C(=O)CC(C)=O)c(OC)c1 | > 100 µM | > 100 µM | > 100 µM | > 100 µM | > 100 µM | > 100 µM | > 100 µM | > 100 µM | – | – | – | – | – | – | – | > 100 µM | – | – | – | –
9 | CCCN(CCC)CCc1cc(C(C)=O)n(S(=O)(=O)c2ccc(C)cc2)c1 | > 100 µM | > 100 µM | > 100 µM | > 100 µM | 40.2 µM | > 100 µM | > 100 µM | > 100 µM | – | – | – | – | – | – | – | > 100 µM | – | – | – | –
10 | CCN(CCCl)CCCCCNc1c2ccccc2nc2ccc(OC)cc12 | 3.09 µM | 16.7 µM | 2.94 µM | 8.38 µM | 9.74 µM | 7.28 µM | 2.69 µM | 1.63 µM | – | – | – | – | – | – | – | 9.68 µM | – | – | – | –
11 | O=C1NC(=O)[C@@]2(CC[C@@H](O)C2)c2ccncc21 | > 100 µM | > 100 µM | > 100 µM | – | > 100 µM | – | > 100 µM | > 100 µM | – | – | – | – | – | – | – | – | – | – | – | > 100 µM
12 | O=C1C=C2C=CC3CC2(O1)C1CCCCN31 (stereo not given) | > 100 µM and 84.3 µM | 78.8 µM and 79.5 µM and > 100 µM | 40.9 µM and 42.4 µM and 86.4 µM | – | > 100 µM | 69.6 µM and 48.1 µM and > 100 µM | 33.5 µM and 54.5 µM and > 100 µM | 42.4 µM and 39 µM and > 100 µM | 23.9 µM and 15.9 µM and 50.2 µM | 17.7 µM and 22.3 µM and 43.3 µM | – | – | 28.1 µM and 24 µM and 54.4 µM | 18.6 µM and 17.3 µM and 40.6 µM | – | > 100 µM and 76.1 µM | 15.9 µM and 19.9 µM and 34.9 µM | 16.9 µM and 13.7 µM and 38 µM | 67.8 µM and 29.3 µM and 63.3 µM | > 100 µM
13 | C/C(=N\NC(=O)CC#N)C(CN1CCCCC1)C(c1ccccc1)c1c(O)c2ccccc2oc1=O (stereo not given) | > 100 µM | > 100 µM | > 100 µM | – | > 100 µM | > 100 µM | > 100 µM | > 100 µM | – | – | – | – | – | – | – | – | – | – | – | > 100 µM
14 | Cc1cc2c(c3nocc13)C(=O)c1ccccc1C2=O | > 100 µM | > 100 µM | > 100 µM | > 100 µM | > 100 µM | > 100 µM | > 100 µM | > 100 µM | – | – | – | – | – | – | – | > 100 µM | – | – | – | –
15 | O=C(O)CNc1ccc(Cl)c(Cl)c1 | 53 µM | 50.3 µM | – | 86.1 µM | > 100 µM | 82.4 µM | 87.9 µM | 73.9 µM | – | – | – | – | – | – | – | 75.9 µM | – | – | – | > 100 µM
16 | COc1cc(-c2nn(-c3cccc(NC(=O)NCCNS(=O)(=O)c4ccc(Cl)cc4)c3)cc2-c2ccncc2)ccc1Cl | 11.8 µM | – | 5.09 µM | 33 µM | 2.42 µM | 1.55 µM | 1.83 µM | 30.3 µM | 2.69 µM | – | 1.69 µM | 1.08 µM | 0.423 µM | 0.371 µM | 0.513 µM | 2.09 µM | 0.493 µM | 0.524 µM | 0.351 µM | 5.14 µM
17 | Cc1cn(CCC(N)C(=O)O)c(=O)[nH]c1=O (stereo not given) | > 100 µM | – | – | > 100 µM | > 100 µM | > 100 µM | > 100 µM | > 100 µM | – | – | – | – | – | – | – | > 100 µM | – | – | – | > 100 µM
18 | CCN(CC)CCCOc1ccc2ncnc(Nc3ccc(Oc4cccc(C(F)(F)F)c4)c(Cl)c3)c2c1 | 2.26 µM | 3.1 µM | 3.09 µM | – | – | 2.84 µM | – | 3.09 µM | 1.07 µM | 1.4 µM | 1.58 µM | – | – | 1.45 µM | 1.73 µM | 3.17 µM | – | 1.61 µM | – | –
19 | C[C@]12CC[C@@H]3c4ccc(O)cc4CC[C@H]3[C@@H]1CC[C@@H]2NS(=O)(=O)c1cccc(Cl)c1 | 7.69 µM | 10.6 µM | 10.4 µM | 15.3 µM | 6.35 µM | – | 3.22 µM | 15 µM | 2.58 µM | 2.97 µM | 3.45 µM | 4.46 µM | 2.34 µM | – | 3.1 µM | 10.8 µM | 1.72 µM | 3.91 µM | 3.09 µM | 13.1 µM
